Laboratory results: patent US7595176B2, “Methods and reagents for quantitative analysis of Dehalococcoides species” (Georgia Tech Research Corporation, priority 2003, dated 2009)

Assays:
[1] = 25° C.; Gossett 1987; cited from earlier work
[2] = system: VC-dechlorinating Dehalococcoides population in the Bachman culture; assay: Reductive dechlorination kinetics of chloroethenes in the VC-dechlorinating Bachman enrichment culture; assay type: cell-based, Dehalococcoides sp.; settings: for Dechlorination by the culture after prolonged enrichment with VC: chloroethene added alone, without DCEs or VC; for Ks (half-velocity coefficient) / kX (maximum aqueous dechlorination rate): pyruvate-fed cultures, Monod equation, nonlinear regression
Experimental: All experiments were carried out in serum bottles (160 ml nominal volume) containing 100 ml (final volume) of growth medium, which were sealed with black butyl rubber septa (Wheaton, Ochelata, Okla.). Anoxic, bicarbonate-buffered mineral salts medium was prepared, and was amended with pyruvate (10 mM), lactate (5 mM or 10 mM), acetate plus formate (5 mM each), or acetate (5 mM) as substrates. Löffler et al., Appl. Environ. Microbiol., 1997, 63:4982-4985. Unless indicated otherwise, H2 was only added to acetate-fed cultures at a partial pressure of 9 kPa. Routinely, L-cysteine and Na2S×9 H2O (0.2 mM each) were used to chemically reduce the medium. DL-dithiothreitol (DTT) was tested at 0.5 mM concentration. Titanium(III) (0.5 mM) was added from a filter-sterilized citrate solution after the medium had been autoclaved. Löffler et al., Appl. Environ. Microbial., 1996, 62:3809-3813; Zehnder et al., Science, 1976, 194:1165-1166. Gaseous VC was added as a single dose of 1 to 6 ml per serum bottle resulting in initial aqueous concentrations ranging from 0.27 to 1.6 mM. Other chloroethenes were added using Hamilton glass syringes (Hamilton, Reno, Nev.) to initial aqueous concentrations ranging from 0.2 to 0.5 mM. Biogenic cis-DCE was produced from PCE (0.5 mM) using a culture of ‘Desulfuromonas michiganensis’.
After complete dechlorination to cis-DCE (0.5 mM), the cultures were amended with pyruvate and inoculated with the VC-dechlorinating culture. New cultures were routinely seeded with a 2% (vol/vol) inoculum using plastic syringes. To minimize the contact of the inoculum with air present in the plastic of the syringes during transfers, the syringes were reduced with a sterile 0.5 mM aqueous sulfide solution for 5-10 min prior to transfers. Gaseous substrates were added with plastic syringes that had been previously flushed with H2- and O2-free N2.
All experiments were set up in triplicates, and all results were verified by at least one additional independent experiment. Culture bottles were incubated upside down at room temperature (22-25° C.) without agitation in the dark, unless indicated otherwise. Duplicate controls (no inoculum or autoclaved inoculum) accompanied each experiment. Ethene formation strictly depended on a viable inoculum, and loss of VC through the septum was negligible.
Chloroethenes were measured with a Hewlett Packard model 6890 gas chromatograph equipped with a HP-624 column (60 m length, 0.32 mm diameter, 1.8 μm film thickness) and a flame ionization detector (FID). Headspace samples of 100 μl were withdrawn with gas-tight 250 μl Hamilton glass syringes with Teflon-lined valves (model # 1725), and manually injected into a split injector operated at a split ratio of 2:1. All syringes were flushed with H2- and O2-free N2 gas to prevent contamination of the cultures with these gases. A temperature program that allowed the simultaneous analysis of all chloroethenes and ethene was described previously. He et al., Environ. Sci. Technol., 2002, 36: 3945-3952. Standards were prepared as described and 7-point calibration curves were established for all chloroethenes and ethene at room temperature. Gossett, Environ. Sci. Technol., 1987, 21: 202-208. The instrument detection limits for VC and ethene were 7.3 and 8.6 μM, respectively. For quantification of VC and ethene at different temperatures, concentrations of each compound were determined from 3-point calibration curves.
[formula] was used to describe the substrate reaction kinetics, where S is the chloroethene concentration, KS is the half-saturation coefficient, k is the maximum chloroethene dechlorination rate per unit of biomass, and X is the dechlorinating biomass concentration. It was assumed that Xlag was zero during the lag period due to the small inoculum transferred, and X remained constant during the phase of active dechlorination due to slow growth of the dechlorinating population(s). […]

In the case of `C=C(Cl)Cl` [1,1-DCE], the “Dimensionless Henry coefficient” value [1] is listed as 1.069.

With `ClC(Cl)=C(Cl)Cl` [PCE, Perchloroethene] the “Dechlorination by the culture after prolonged enrichment with VC” value [2] was “failed to dechlorinate”.

With `ClC=C(Cl)Cl` [TCE, trichloroethene] the “Dechlorination by the culture after prolonged enrichment with VC” value [2] was “failed to dechlorinate”.

For `C=CCl` [VC, vinyl chloride], the VC dechlorination rate ([2]; acetate-enriched cultures) was 2.4 ± 0.5 µmol/L/day, the “Ks (half-velocity coefficient)” value [2] was 5.8 ± 0.4 µM and the “kX (maximum aqueous dechlorination rate)” value [2] was 54.4 ± 3.5 μMday^−1. For the same compound, the “Dimensionless Henry coefficient” value [1] was 1.137.

In the case of `CC1(C)S[C@@H]2[C@H](NC(=O)[C@H](N)c3ccccc3)C(=O)N2[C@H]1C(=O)O` [ampicillin, reference compound], the “Effect on dechlorination rates of DCEs and VC to ethene” value ([2]; compared with cultures without the antibiotic) is reported as “about one third less”.

For `Cl/C=C\Cl` [cis-DCE], the “Ks (half-velocity coefficient)” value [2] is listed as 8.9 ± 0.4 µM, the “kX (maximum aqueous dechlorination rate)” value [2] is listed as 23.1 ± 0.8 μMday^−1 and the “Dimensionless Henry coefficient” value [1] is listed as 0.167.

In the case of `Cl/C=C/Cl` [trans-DCE], the “Ks (half-velocity coefficient)” value [2] is listed as 8.5 ± 0.3 µM, the “kX (maximum aqueous dechlorination rate)” value [2] is listed as 26.2 ± 0.7 μMday^−1 and the “Dimensionless Henry coefficient” value [1] is listed as 0.384.
